This note sets out measurements from the NIST ThermoML archive (doi:10.1021/je900909s).

Values joined by “and” are separate entries in the source; they are usually repeats but may differ in a detail not shown here. Equal entries are not always repeated. Numbers after ± are expanded uncertainties.

The series is described as follows: cn = amount concentration of the nth substance listed, in mol/dm3. The conditions noted are these: 101 kPa, Liquid, c1 = 2; for speed of sound: Frequency=4 MHz, Linear variable-path acoustic interferometer.

For orientation: speed of sound means how fast a sound wave travels through the sample. A word on the mass density: it is the mass of a sample divided by its volume. As for `O=[N+]([O-])[O-].[Na+]` [sodium nitrate] + O, the speed of sound reads like this: (298.15 K) 1581.4 ± 2.1 m/s; (303.15 K) 1588.6 ± 2.1 m/s; (308.15 K) 1593.2 ± 2.1 m/s; (313.15 K) 1596.3 ± 2.1 m/s; (318.15 K) 1600.1 ± 2.1 m/s; (323.15 K) 1604.3 ± 2.1 m/s. Besides, the speed of sound (328.15 K) came out at 1607.1 ± 2.1 m/s. In addition, the mass density (298.15 K) came to 1104.2 ± 1.5 kg/m3; the mass density (303.15 K) was found to be 1101.7 ± 1.5 kg/m3; the mass density (308.15 K) is reported as 1099 ± 1.6 kg/m3; the mass density (313.15 K) was 1096.3 ± 1.7 kg/m3; the mass density (318.15 K) turned out to be 1093.4 ± 1.7 kg/m3; the mass density (323.15 K) was 1090.4 ± 1.8 kg/m3. Further, the mass density (328.15 K) was determined as 1087.2 ± 1.8 kg/m3.

As for `[Cl-].[Na+]` [sodium chloride] + O, the speed of sound (298.15 K) stood at 1614.3 ± 2.1 m/s; the speed of sound (303.15 K) was found to be 1620.9 ± 2.1 m/s; the speed of sound (308.15 K) came out at 1627.6 ± 2.1 m/s; the speed of sound (313.15 K) was determined as 1633.7 ± 2.1 m/s; the speed of sound (318.15 K) was found to be 1637.3 ± 2.1 m/s; the speed of sound (323.15 K) is listed as 1640.5 ± 2.2 m/s. The speed of sound (328.15 K) is 1643.7 ± 2.2 m/s and 1642.7 ± 2.2 m/s. The mass density by setting is: (298.15 K) 1075 ± 1.4 kg/m3; (303.15 K) 1073 ± 1.5 kg/m3; (308.15 K) 1070.7 ± 1.5 kg/m3; (313.15 K) 1068.3 ± 1.6 kg/m3; (318.15 K) 1065.7 ± 1.7 kg/m3; (323.15 K) 1063.1 ± 1.7 kg/m3. Also, the mass density (328.15 K) was 1060.2 ± 1.8 kg/m3.
